Laboratory results taken from patent publication US6878736B1, “Histamine H3 receptor ligands” (James Black Foundation Limited, priority 1998, dated 2005).

Legend:
Histamine H3 receptor [1] = target: T1, Histamine H3 receptor (Cavia porcellus, UniProt Q9JI35); assay: Histamine H3 radioligand binding assay, guinea pig cortex ([3H]-R-α-methylhistamine); conditions: guinea pig cortex membranes, competition with 1 nM [3H]-R-α-methylhistamine; for Ki: read-out: pKi (Guinea pig cortex) (converted)
Summary of the method: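 Male Dunkin Hartley guinea pig cortical membranes incubated 165 min at 21±3 °C in 20 mM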

Histamine H3 receptor [2] = target: T1, Histamine H3 receptor; assay: Histamine H3 functional assay, guinea pig ileum (ileal longitudinal muscle, myenteric plexus); parameters: species or system tissue; conditions: antagonist affinity from rightward shift of R-(α)-methylhistamine E/[A] curves (Schild), typical variance ±0.15 log units; for Kb: read-out: pKb (Guinea pig ileum) (converted)
Summary of the method: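 Longitudinal muscle–myenteric plexus strips from male Dunkin-Hartley guinea pigs (250-300 g), Krebs-Henseleit buffer at 37±1° C, field-stimulated at 0.1 Hz, 0.5 msec, supramaximal voltage; isometric recording. Cumulative R-(α)-methylhistamine E/[A] curves as % inhibition of twitch height; antagonist affinity by Schild analysis of rightward shift.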

T1 sequence (Q9JI35 whole entry): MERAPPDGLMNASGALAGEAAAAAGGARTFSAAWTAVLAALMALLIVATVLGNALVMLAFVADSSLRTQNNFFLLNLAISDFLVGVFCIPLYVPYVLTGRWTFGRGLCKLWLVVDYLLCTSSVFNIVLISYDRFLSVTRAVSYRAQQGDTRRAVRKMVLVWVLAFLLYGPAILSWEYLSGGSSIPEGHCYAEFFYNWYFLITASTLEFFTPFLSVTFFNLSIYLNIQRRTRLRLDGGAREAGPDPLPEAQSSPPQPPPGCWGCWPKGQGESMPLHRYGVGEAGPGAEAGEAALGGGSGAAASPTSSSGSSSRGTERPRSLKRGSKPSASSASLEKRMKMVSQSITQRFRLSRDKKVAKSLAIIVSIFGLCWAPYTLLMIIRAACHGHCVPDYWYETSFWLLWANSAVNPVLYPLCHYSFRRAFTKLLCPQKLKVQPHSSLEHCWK

`CN1CCC[C@H]1CCCN(C)S(=O)(=O)N(C)Cc1ccc(Cl)cc1` [Example 120, N-(4-Chlorobenzyl)-N,N′-dimethyl-N′-(3-(1-methyl-pyrrolidin-2S-yl)-propyl)-sulfamide] gave a Ki (Histamine H3 receptor [1]) of 501 nM and a Kb (Histamine H3 receptor [2]) of 501 nM.

For `CN1CCC[C@H]1CCCNS(=O)(=O)N(C)Cc1ccc(Cl)cc1` [Example 121, N-(4-Chlorobenzyl)-N-methyl-N′-(3-(1-methyl-pyrrolidin-2S-yl)-propyl)-sulfamide], the Ki (Histamine H3 receptor [1]) was 316 nM and the Kb (Histamine H3 receptor [2]) was 1000 nM.

`CN1CCC[C@H]1CCCN(C)S(=O)(=O)NCc1ccc(Cl)cc1` [Example 122, N-(4-Chlorobenzyl)-N′-methyl-N′-(3-(1-methyl-pyrrolidin-2S-yl)propyl)-sulfamide] showed a Ki (Histamine H3 receptor [1]) of 126 nM and a Kb (Histamine H3 receptor [2]) of 316 nM.

`CN1CCC[C@H]1CCCN(CCCN1C(=O)c2ccccc2C1=O)S(=O)(=O)NCc1ccc(Cl)cc1` [Example 125, N-(4-Chlorobenzyl)-N′-(3-phthalimido-propyl)-N′-(3-(1-methyl-pyrrolidin-2S-yl)propyl)-sulfamide] was tested, and the Ki (Histamine H3 receptor [1]) was 316 nM and the Kb (Histamine H3 receptor [2]) was greater than 3160 nM.

In the case of `CNC(=O)CN(CCC[C@@H]1CCCN1C)S(=O)(=O)NCc1ccc(Cl)cc1` [Example 127, N-(4-Chlorobenzyl)-N′-(methylamidomethyl)-N′-(3-(1-methyl-pyrrolidin-2S-yl)propyl)-sulfamide], the Ki (Histamine H3 receptor [1]) is reported as 2000 nM and the Kb (Histamine H3 receptor [2]) is reported as 2000 nM.

For `CN1CCC[C@H]1CCCN(CCCc1ccc(Cl)cc1)S(=O)(=O)NCc1ccc(Cl)cc1` [Example 131, N-(4-Chlorobenzyl)-N′-(3-(4-chlorophenyl)propyl)-N′-(3-(1-methyl-pyrrolidin-2S-yl)propyl)-sulfamide], the Ki (Histamine H3 receptor [1]) was 1000 nM and the Kb (Histamine H3 receptor [2]) was greater than 3160 nM.

For `CN1C[C@H](O)C[C@@H]1CCCNS(=O)(=O)NCc1ccc(Cl)cc1` [Example 132, N-(4-Chlorobenzyl)-N′-(3-(4R-hydroxy-1-methyl-pyrrolidin-2S-yl)-propyl)-sulfamide], the “pKi (Guinea pig cortex)” value (Histamine H3 receptor [1]) was 6.9 and the “pKb (Guinea pig ileum)” value (Histamine H3 receptor [2]) was 5.8.

For `CN1CC(OCc2ccc(Cl)cc2)CC1CCCNS(=O)(=O)NCc1ccc(Cl)cc1` (stereo not drawn) [Example 133, N-(4-Chlorobenzyl)-N′-(3-(4R-(4-chlorobenzyloxy)-1-methyl-pyrrolidin-2S-yl)-propyl)-sulfamide], the Ki (Histamine H3 receptor [1]) was 2510 nM and the Kb (Histamine H3 receptor [2]) was greater than 3160 nM.

`O=S(=O)(NCCCN1CCCC1)NCc1ccc(Cl)cc1` [Example 135, N-(4-Chlorobenzyl)-N′-(3-pyrrolidin-1-yl-propyl)-sulfamide] gave a Ki (Histamine H3 receptor [1]) of 316 nM and a Kb (Histamine H3 receptor [2]) of 631 nM.

In the case of `CN1CCCC1CCCCS(=O)(=O)NCc1ccc(Cl)cc1` (stereo not drawn) [Example 136, N-(4-Chlorobenzyl)-4-(1-methyl-pyrrolidin-2S-yl)-butanesulfonamide], the Ki (Histamine H3 receptor [1]) is reported as 316 nM and the Kb (Histamine H3 receptor [2]) is reported as 316 nM.

Work on `O=S(=O)(NCCCCN1CCCC1)NCc1ccc(Cl)cc1` [Example 139, N-(4-Chlorobenzyl)-N′-(4-pyrrolidin-1-yl-butyl)-sulfamide] yielded a Ki (Histamine H3 receptor [1]) of 200 nM and a Kb (Histamine H3 receptor [2]) of 501 nM.

Compound `O=S(=O)(NCCCCN1CCCC1)N(CCCCN1CCCC1)Cc1ccc(Cl)cc1` [Example 140, N-(4-Chlorobenzyl)-N N′-bis(4-pyrrolidin-1-yl-butyl)-sulfamide] has a Ki (Histamine H3 receptor [1]) of 7.94 nM and a Kb (Histamine H3 receptor [2]) of 316 nM.

In the case of `O=S(=O)(NCCCCCN1CCCC1)NCc1ccc(Cl)cc1` [Example 141, N-(4-Chlorobenzyl)-N′-(5-pyrrolidin-1-yl-pentyl)-sulfamide], the Ki (Histamine H3 receptor [1]) is reported as 251 nM and the Kb (Histamine H3 receptor [2]) is reported as 501 nM.

With `CN1CCC[C@H]1CCCNS(=O)(=O)CCC1CCCCC1` [Example 142, N-(3-(1-Methyl-pyrrolidin-2S-yl)-propyl)-2-cyclohexyl-ethanesulfonamide] the Ki (Histamine H3 receptor [1]) was 631 nM and the Kb (Histamine H3 receptor [2]) was 2000 nM.

In the case of “N-Adamantan-1-yl-methyl-N′-(3-pyrrolidin-1-yl-propyl)-guanidine bis-hydrochloride [Example 28]”, the “pKi (Guinea pig cortex)” value (Histamine H3 receptor [1]) is reported as 7.5 and the “pKb (Guinea pig ileum)” value (Histamine H3 receptor [2]) is reported as 6.7.

“N-Adamantan-1-yl-methyl-N′-(4-pyrrolidin-1-yl-butyl)-guanidine bis-hydrochloride [Example 29]” was tested, and the “pKi (Guinea pig cortex)” value (Histamine H3 receptor [1]) was 8.4 and the “pKb (Guinea pig ileum)” value (Histamine H3 receptor [2]) was 7.7.

“N-Biphenyl-4-yl-methyl-N′-(5-pyrrolidin-1-yl-pentyl)-guanidine bis-hydrochloride [Example 55]” was tested, and the “pKi (Guinea pig cortex)” value (Histamine H3 receptor [1]) was 7.5 and the “pKb (Guinea pig ileum)” value (Histamine H3 receptor [2]) was 6.6.
